# Experimental data published in US10035805B2, “Tricyclic triazolic compounds” (LABORATORIOS DEL DR. ESTEVE S.A., priority 2014, dated 2018).
# Counter-ions that a name gives are not always drawn.
# Target: T1, sigma-1 receptor (Cavia porcellus, UniProt Q60492)
# T1 construct: Guinea pig brains were homogenized in 10 vols; (w/v) of Tris-HCl 50 mM 0.32 M sucrose; from tissue; host or cells: guinea pig brain membranes
# Assay: Sigma-1 receptor radioligand binding assay with [3H]-(+)-pentazocine in guinea pig brain membranes
# Details: radioligand [3H]-(+)-pentazocine at 5.0 nM, 150 min at 37° C., nonspecific binding with 1 μM haloperidol
# Experimental: Brain membrane preparation and binding assays for the al-receptor were performed as described (DeHaven-Hudkins, D. L., L. C. Fleissner, and F. Y. Ford-Rice, 1992, Characterization of the binding of [^3H](+)pentazocine to a recognition sites in guinea pig brain, Eur. J. Pharmacol. 227, 371-378) with some modifications. Guinea pig brains were homogenized in 10 vols. (w/v) of Tris-HCl 50 mM 0.32 M sucrose, pH 7.4, with a Kinematica Polytron PT 3000 at 15000 r.p.m. for 30 s. The homogenate was centrifuged at 1000 g for 10 min at 4° C. and the supernatants collected and centrifuged again at 48000 g for 15 min at 4° C. The pellet was resuspended in 10 volumes of Tris-HCl buffer (50 mM, pH 7.4), incubated at 37° C. for 30 min, and centrifuged at 48000 g for 20 min at 4° C. Following this, the pellet was resuspended in fresh Tris-HCl buffer (50 mM, pH 7.4) and stored on ice until use.
# The radioligand used was [^3H]-(+)-pentazocine at 5.0 nM and the final volume was 200 μl. The incubation was initiated with the addition of 100 μl of membrane at a final tissue concentration of approximately 5 mg tissue net weight/mL and the incubation time was 150 m. at 37° C. After incubation, the membranes were collected onto pretreated glass fiber filterplate (MultiScreen-FC, Millipore), with polyethylenimine 0.1%. The filters were washed two times with 200 μl of washing buffer (50 mM Tris Cl, pH=7.4) and then 25 μl of Ecoscint H liquid scintillation cocktail were added. Microplates were allowed to set for several hours and then quantified by liquid scintillation spectrophotometry (1450 Microbeta, Wallac). Nonspecific binding was determined with 1 μM haloperidol.
# T1 sequence (Q60492 whole entry): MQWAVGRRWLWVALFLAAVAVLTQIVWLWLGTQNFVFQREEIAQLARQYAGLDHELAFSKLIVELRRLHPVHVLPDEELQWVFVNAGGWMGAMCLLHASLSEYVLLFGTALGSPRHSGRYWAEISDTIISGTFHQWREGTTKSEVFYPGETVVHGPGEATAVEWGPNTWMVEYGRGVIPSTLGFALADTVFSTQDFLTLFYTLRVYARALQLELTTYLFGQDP
row,Ki [nM],Structure (SMILES)
1,100 to 500,"CC(=O)N1Cc2c(-c3ccccc3)nnn2[C@@H]2CN(Cc3ccccc3)C[C@H]21 (racemic) [Example 4, (rac) 1-((5a,8a-trans)-7-benzyl-3-phenyl-6,7,8,8a-tetrahydro-4H-pyrrolo[3,4-e][1,2,3]triazolo[1,5-a]pyrazin-5(5aH)-yl)ethanone hydrochloride]"
2,> 500,"CCCN1C(=O)c2c(-c3ccccc3)nnn2[C@@H]2CN(Cc3ccccc3)C[C@@H]21 (racemic) [Example 5, (rac)-(5a,8a-cis)-7-benzyl-3-phenyl-5-propyl-5,5a,6,7,8,8a-hexahydro-4H-pyrrolo[3,4-e][1,2,3]triazolo[1,5-a]pyrazin-4-one]"
3,100 to 500,"CS(=O)(=O)N1Cc2c(-c3ccccc3)nnn2[C@@H]2CN(Cc3ccccc3)C[C@H]21 (racemic) [Example 20, (rac) (5a,8a-trans)-7-benzyl-5-(methylsulfonyl)-3-phenyl-5,5a,6,7,8,8a-hexahydro-4H-pyrrolo[3,4-e][1,2,3]triazolo[1,5-a]pyrazine hydrochloride]"
4,< 100,"Fc1ccccc1-c1nnn2c1CN[C@@H]1CN(Cc3ccccc3)C[C@H]12 (racemic) [Example 28, (rac) (5a,8a-trans)-7-benzyl-3-(2-fluorophenyl)-5,5a,6,7,8,8a-hexahydro-4H-pyrrolo[3,4-e][1,2,3]triazolo[1,5-a]pyrazine hydrochloride]"
5,> 500,"CCCN1Cc2c(-c3ccccc3)nnn2[C@@H]2CNC[C@H]21 (racemic) [Example 10, (rac) (5a,8a-trans)-3-phenyl-5-propyl-5,5a,6,7,8,8a-hexahydro-4H-pyrrolo[3,4-e][1,2,3]triazolo[1,5-a]pyrazine hydrochloride]"
6,> 500,"O=C1N[C@H]2CNC[C@H]2n2nnc(-c3ccccc3)c21 (racemic) [Example 36, (rac)-(5a,8a-cis)-3-phenyl-5,5a,6,7,8,8a-hexahydro-4H-pyrrolo[3,4-e][1,2,3]triazolo[1,5-a]pyrazin-4-one hydrochloride]"
7,< 100,"CCCN1CCc2c(-c3ccccc3)nnn2[C@@H]2CN(Cc3ccccc3)C[C@@H]21 (racemic) [Example 31, (rac) (6a,9a-cis)-8-benzyl-3-phenyl-6-propyl-4,5,6,6a,7,8,9,9a-octahydropyrrolo[3,4-b][1,2,3]triazolo[1,5-d][1,4]diazepine hydrochloride]"
8,< 100,"Fc1ccccc1-c1nnn2c1CN[C@@H]1CN(Cc3ccccc3)C[C@H]12 [Example 29, (5aR,8aR)-7-benzyl-3-(2-fluorophenyl)-5,5a,6,7,8,8a-hexahydro-4H-pyrrolo[3,4-e][1,2,3]triazolo[1,5-a]pyrazine hydrochloride]"
9,100 to 500,"c1ccc(CN2C[C@@H]3NCc4c(-c5ccccc5)nnn4[C@@H]3C2)cc1 (racemic) [Example 3, (rac) (5a,8a-cis)-7-benzyl-3-phenyl-5,5a,6,7,8,8a-hexahydro-4H-pyrrolo[3,4-e][1,2,3]triazolo[1,5-a]pyrazine]"
10,100 to 500,"FC(F)(F)c1ccc(CN2C[C@@H]3[C@@H](C2)NCc2c(-c4ccccc4)nnn23)cc1 [Example 26, (5aR,8aR)-3-phenyl-7-(4-(trifluoromethyl)benzyl)-5,5a,6,7,8,8a-hexahydro-4H-pyrrolo[3,4-e][1,2,3]triazolo[1,5-a]pyrazine hydrochloride]"
11,100 to 500,"CCC(=O)N1Cc2c(-c3ccccc3)nnn2[C@@H]2CN(Cc3ccccc3)C[C@H]21 (racemic) [Example 17, (rac) 1-((5a,8a-trans)-7-benzyl-3-phenyl-6,7,8,8a-tetrahydro-4H-pyrrolo[3,4-e][1,2,3]triazolo[1,5-a]pyrazin-5(5aH)-yl)propan-1-one hydrochloride]"
12,> 500,"CC(C)(C)OC(=O)N1Cc2c(-c3ccccc3)nnn2[C@@H]2CNC[C@H]21 (racemic) [Example 6, (rac)-(5a,8a-trans)-tert-butyl-3-phenyl-6,7,8,8a-tetrahydro-4H-pyrrolo[3,4-e][1,2,3]triazolo[1,5-a]pyrazine-5(5aH)-carboxylate]"
13,< 100,"c1ccc(CN2C[C@@H]3NCCc4c(-c5ccccc5)nnn4[C@@H]3C2)cc1 (racemic) [Example 30, (rac) (6a,9a-cis)-8-benzyl-3-phenyl-4,5,6,6a,7,8,9,9a-octahydropyrrolo[3,4-b][1,2,3]triazolo[1,5-d][1,4]diazepine hydrochloride]"
14,< 100,"c1ccc(CN2C[C@@H]3[C@@H](C2)NCc2c(-c4ccccc4)nnn23)cc1 (racemic) [Example 1, (rac) (5a,8a-trans)-7-benzyl-3-phenyl-5,5a,6,7,8,8a-hexahydro-4H-pyrrolo[3,4-e][1,2,3]triazolo[1,5-a]pyrazine, hydrochloride]"
